Results from ChEMBL document CHEMBL1126228, “2,3:18,19-dioxidosqualene: synthesis and activity as a potent inhibitor of 2,3-oxidosqualene-lanosterol cyclase in rat liver microsomes” (Bioorg Med Chem Lett, 1992).
pIC50: −log10 of the molar value.

Target: T1, Lanosterol synthase (Rattus norvegicus, UniProt P48450)
T1 sequence (P48450 whole entry): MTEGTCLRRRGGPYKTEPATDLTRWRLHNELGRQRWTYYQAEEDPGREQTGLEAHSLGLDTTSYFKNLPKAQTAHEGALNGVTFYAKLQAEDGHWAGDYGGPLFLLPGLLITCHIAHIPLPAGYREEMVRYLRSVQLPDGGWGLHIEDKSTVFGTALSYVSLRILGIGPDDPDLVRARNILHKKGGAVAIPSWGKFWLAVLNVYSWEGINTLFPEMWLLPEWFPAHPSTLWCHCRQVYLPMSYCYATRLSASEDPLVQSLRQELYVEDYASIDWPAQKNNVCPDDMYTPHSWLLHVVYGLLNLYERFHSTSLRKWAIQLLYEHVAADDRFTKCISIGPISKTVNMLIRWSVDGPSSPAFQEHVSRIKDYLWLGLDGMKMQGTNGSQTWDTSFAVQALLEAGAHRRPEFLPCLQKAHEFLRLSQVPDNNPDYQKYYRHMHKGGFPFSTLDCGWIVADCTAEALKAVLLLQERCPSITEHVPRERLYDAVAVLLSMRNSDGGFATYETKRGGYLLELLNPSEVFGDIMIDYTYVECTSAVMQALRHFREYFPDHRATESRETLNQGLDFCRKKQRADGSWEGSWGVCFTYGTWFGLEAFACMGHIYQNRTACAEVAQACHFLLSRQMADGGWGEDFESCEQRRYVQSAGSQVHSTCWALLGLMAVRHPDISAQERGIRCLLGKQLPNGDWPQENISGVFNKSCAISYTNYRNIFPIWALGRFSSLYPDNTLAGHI
Assay: Compound was evaluated for inhibitory activity against 2,3-oxidosqualene-lanosterol cyclase in rat liver microsomes
Design: species or system Microsome

Row | pIC50 | SMILES
1 | 3.85 | C/C(=C\CC/C=C(\C)CC/C=C(\C)CCC1OC1(C)C)CC/C=C(\C)CCC1OC1(C)C (stereo not drawn)
2 | 4.08 | CC(C)=CCC/C(C)=C/CC/C(C)=C/CC/C=C(\C)CCC1OC1(C)CCC=C(C)C (stereo not drawn)
3 | 6.96 | CC(C)=CCCC1(C)OC1CC/C(C)=C/CC/C=C(\C)CC/C=C(\C)CCC1OC1(C)C (stereo not drawn)
